Experiments:
Format in all cases: in vivo
PDX mouse models of TNBC = experiment: Antitumor effects across the panel of 40 PDX mouse models of TNBC; conditions: range across PDX TNBC models of Table 4
From the text: Establish PDX tumor models from viable human tumor tissue and serially passage in immunocompromised female mice a limited number of times. Using tumor fragments harvested from donor host animals, perform unilateral subcutaneous implants from a specific passage of the PDX tumor model on the flanks of the experimental animals. When tumor volumes reach approximately 150-250 mm^3 in size, randomize the animals by treatment arm by randomization techniques well known in the art and place into their respective treatment groups using 1 animal per treatment group (3 animals in an untreated group). […]
Capture tumor size and body weight twice per week. Estimate tumor volume (V) by using the formula: V=(π/6)×L×W^2 where L=larger of measured diameter and W=smaller perpendicular diameter. Calculate relative tumor volume using the tumor volume measurement taken nearest to the last day of dosing for each animal (T), divided by the baseline tumor volume for that animal (T0), which is the volume recorded on or just prior to the first day of dosing, Y=T/T0. […] Tumor growth inhibition is observed in those instances where the calculated values for % ΔT/ΔC are less than 100% whereby greater inhibition results in smaller % ΔT/ΔC values. If ΔT<0, then a tumor regression value is calculated instead of % ΔT/ΔC whereby % Regression=100(YT−1). […]

PDX TNBC Model CTG-1520 = experiment: Antitumor effects in PDX mouse model of TNBC; conditions: PDX model CTG-1520; A 10 mg/kg SC BID 3 days on/4 off ×4; B 7.5 mg/kg PO BID×28; versus vehicle
From the text: (§1) Establish PDX tumor models from viable human tumor tissue and serially passage in immunocompromised female mice a limited number of times. Using tumor fragments harvested from donor host animals, perform unilateral subcutaneous implants from a specific passage of the PDX tumor model on the flanks of the experimental animals. When tumor volumes reach approximately 150-250 mm^3 in size, randomize the animals by treatment arm by randomization techniques well known in the art and place into their respective treatment groups using 1 animal per treatment group (3 animals in an untreated group). Formulate CHK1 inhibitor, 5-(5-(2-(3-aminopropoxy)-6-methoxyphenyl)-1H-pyrazol-3-ylamino)pyrazine-2-carbonitrile methanesulfonate hydrate, (Compound A) every 14 days in 20% captisol (dissolved in water) and administer subcutaneously twice daily at a dose of 10 mg/kg on days 1/2/3 of a weekly cycle for 4 weeks (SC, BID [3 days on/4 off]×4). Formulate the PI3K/mTOR dual inhibitor, 8-[5-(1-hydroxy-1-methylethyl)pyridin-3-yl]-1-[(2S)-2-methoxypropyl]-3-methyl-1,3-dihydro-2H-imidazo[4,5-c]quinolin-2-one, (Compound B) weekly in 1% (HEC)/0.25% Tween 80 (Polysorbate 80)/0.05% Dow-Corning Antifoam 1510-US and administer by oral gavage twice-daily for 28 days (PO, BID×28) at a dose of 7.5 mg/kg. Dose combination treatment animals with both compounds according to the schedule described above for monotherapy, and dose vehicle treatment animals with vehicle according to the schedule for Compound B.
(§2) Test the combination of Compound A and Compound B, as well as their respective monotherapies, in 40 PDX models (Table 1) of TNBC. Assess antitumor efficacy of the treatment groups by measuring tumor volume via caliper measurements twice a week during the course of the study. Measure body weight twice weekly during the course of the study as a general indicator of tolerability.
(§3) Capture tumor size and body weight twice per week. Estimate tumor volume (V) by using the formula: V=(π/6)×L×W^2 where L=larger of measured diameter and W=smaller perpendicular diameter. Calculate relative tumor volume using the tumor volume measurement taken nearest to the last day of dosing for each animal (T), divided by the baseline tumor volume for that animal (T0), which is the volume recorded on or just prior to the first day of dosing, Y=T/T0. Calculate % ΔT/ΔC values using the formula % ΔT/ΔC=100(YT−1)/(YC−1), whereby YT or YC=geometric mean relative volume of the compound treated group or the control group, respectively. Tumor growth inhibition is observed in those instances where the calculated values for % ΔT/ΔC are less than 100% whereby greater inhibition results in smaller % ΔT/ΔC values. If ΔT<0, then a tumor regression value is calculated instead of % ΔT/ΔC whereby % Regression=100(YT−1). Note that negative values indicate regression. We collectively refer to % ΔT/ΔC and % Regression as % Response.
(§4) Examine relative tumor volume (final volume divided by baseline volume) on the last day of treatment or the last day on which data from all three treatment groups and vehicle is available, if it is earlier than the last day of treatment and at least 14 days after baseline. Expected additive relative volume is determined using the Bliss method (Bliss, C. I., Ann Appl Biol, 1939; 26(3):585-615). Specifically, denoting Y=relative volume, YExp=(Y1*Y2)/YV, where YExp=expected additive relative volume, Y1 and Y2 are the relative volumes in the single agent groups (Compound A and Compound B), and YV is the relative volume in the vehicle group. A range of additivity is defined around the expected additive relative volume via upper and lower limits as follows:
(§5) Yupper=max(2*YExp,YExp+0.2)
(§6) Ylower=min(YExp/2,YExp−0.2)
(§7) The upper limit of the range is the larger of 2-fold above or 20% above the expected additive relative volume, and the lower limit is the smaller of 2-fold below or 20% below the expected additive relative volume. […]

PDX TNBC Model CTG-1453 = experiment: Antitumor effects in PDX mouse model of TNBC; conditions: PDX model CTG-1453; A 10 mg/kg SC BID 3 days on/4 off ×4; B 7.5 mg/kg PO BID×28; versus vehicle
From the text: as §1, §2, §3, §4, §5, §6, §7

PDX TNBC Model CTG-1408 = experiment: Antitumor effects in PDX mouse model of TNBC; conditions: PDX model CTG-1408; A 10 mg/kg SC BID 3 days on/4 off ×4; B 7.5 mg/kg PO BID×28; versus vehicle
From the text: as §1, §2, §3, §4, §5, §6, §7

PDX TNBC Model CTG-0017 = experiment: Antitumor effects in PDX mouse model of TNBC; conditions: PDX model CTG-0017; A 10 mg/kg SC BID 3 days on/4 off ×4; B 7.5 mg/kg PO BID×28; versus vehicle
From the text: as §1, §2, §3, §4, §5, §6, §7

PDX TNBC Model MAXF 449 = experiment: Antitumor effects in PDX mouse model of TNBC; conditions: PDX model MAXF 449; A 10 mg/kg SC BID 3 days on/4 off ×4; B 7.5 mg/kg PO BID×28; versus vehicle
From the text: as §1, §2, §3, §4, §5, §6, §7

PDX TNBC Model ST1283 = experiment: Antitumor effects in PDX mouse model of TNBC; conditions: A 10 mg/kg SC BID 3 days on/4 off ×4, B 7.5 mg/kg PO BID×28, versus vehicle
From the text: as §1, §2, §3, §4, §5, §6, §7

PDX TNBC Model MAXF 857 = experiment: Antitumor effects in PDX mouse model of TNBC; conditions: PDX model MAXF 857; A 10 mg/kg SC BID 3 days on/4 off ×4; B 7.5 mg/kg PO BID×28; versus vehicle
From the text: as §1, §2, §3, §4, §5, §6, §7

PDX TNBC Model CTG-0018 = experiment: Antitumor effects in PDX mouse model of TNBC; conditions: PDX model CTG-0018; A 10 mg/kg SC BID 3 days on/4 off ×4; B 7.5 mg/kg PO BID×28; versus vehicle
From the text: as §1, §2, §3, §4, §5, §6, §7

PDX TNBC Model ST996 = experiment: Antitumor effects in PDX mouse model of TNBC; conditions: A 10 mg/kg SC BID 3 days on/4 off ×4, B 7.5 mg/kg PO BID×28, versus vehicle
From the text: as §1, §2, §3, §4, §5, §6, §7

PDX TNBC Model ST518 = experiment: Antitumor effects in PDX mouse model of TNBC; conditions: A 10 mg/kg SC BID 3 days on/4 off ×4, B 7.5 mg/kg PO BID×28, versus vehicle
From the text: as §1, §2, §3, §4, §5, §6, §7

PDX TNBC Model CTG-1167 = experiment: Antitumor effects in PDX mouse model of TNBC; conditions: PDX model CTG-1167; A 10 mg/kg SC BID 3 days on/4 off ×4; B 7.5 mg/kg PO BID×28; versus vehicle
From the text: as §1, §2, §3, §4, §5, §6, §7

PDX TNBC Model ST1077 = experiment: Antitumor effects in PDX mouse model of TNBC; conditions: A 10 mg/kg SC BID 3 days on/4 off ×4, B 7.5 mg/kg PO BID×28, versus vehicle
From the text: as §1, §2, §3, §4, §5, §6, §7

Structure (SMILES) | efficacy values, % response, range over the models (PDX mouse models of TNBC) | % Rsp. (% ΔT/ΔC or % Regression) (PDX TNBC Model CTG-1520) [%] | % Rsp. (% ΔT/ΔC or % Regression) (PDX TNBC Model CTG-1453) [%] | % Rsp. (% ΔT/ΔC or % Regression) (PDX TNBC Model CTG-1408) [%] | % Rsp. (% ΔT/ΔC or % Regression) (PDX TNBC Model CTG-0017) [%] | % Rsp. (% ΔT/ΔC or % Regression) (PDX TNBC Model MAXF 449) [%] | % Rsp. (% ΔT/ΔC or % Regression) (PDX TNBC Model ST1283) [%] | % Rsp. (% ΔT/ΔC or % Regression) (PDX TNBC Model MAXF 857) [%] | % Rsp. (% ΔT/ΔC or % Regression) (PDX TNBC Model CTG-0018) [%] | % Rsp. (% ΔT/ΔC or % Regression) (PDX TNBC Model ST996) [%] | % Rsp. (% ΔT/ΔC or % Regression) (PDX TNBC Model ST518) [%] | % Rsp. (% ΔT/ΔC or % Regression) (PDX TNBC Model CTG-1167) [%] | % Rsp. (% ΔT/ΔC or % Regression) (PDX TNBC Model ST1077) [%]
CO[C@@H](C)Cn1c(=O)n(C)c2cnc3ccc(-c4cncc(C(C)(C)O)c4)cc3c21 [Compound B, 8-[5-(1-hydroxy-1-methylethyl)pyridin-3-yl]-1-[(2S)-2-methoxypropyl]-3-methyl-1,3-dihydro-2H-imidazo[4,5-c]quinolin-2-one] | 163% to −31 | 61.2 | −6.9 | 27.5 | 28.1 | 34.7 | 23.3 | 72.7 | 86.0 | 23.5 | 66.5 | 65.8 | 9.1
COc1cccc(OCCCN)c1-c1cc(Nc2cnc(C#N)cn2)n[nH]1.CS(=O)(=O)O [Compound A, 5-(5-(2-(3-aminopropoxy)-6-methoxyphenyl)-1H-pyrazol-3-ylamino)pyrazine-2-carbonitrile methanesulfonate hydrate] | 126.1% to −100 | 49.9 | 2.3 | 11.1 | 52.3 | −100.0 | 0.0 | 32.4 | −57.6 | 0.7 | −23.4 | 62.3 | 0.0

Source: patent publication US20180228795A1, “COMBINATION THERAPY FOR CANCER” (Eli Lilly and Company, priority 2015, published 2018)
